Laboratory results taken from patent US20220033396A1, “FURTHER HETEROAROMATIC COMPOUNDS HAVING ACTIVITY AGAINST RSV” (priority 2018, published 2022).

What was measured:
rgRSV224 virus = assay: microbe, parasite or virus in culture; format: cell-based; settings: human respiratory syncytial virus, 72 h; rgRSV224 virus (MOI=1), HeLa cells, GFP expression three days post-virus exposure; averaged data of several repeat experiments; read-out: RSV HELA EC50
in vitro = settings: human

## C[C@@H]1c2ccccc2CCN1C(=O)c1cc(C2CC2)c2nc(-c3ccc(N4C[C@H](O)[C@@H](O)C4)cc3F)cn2n1 [Compound 51, (8-cyclopropyl-2-(4-((3 S,4 S)-3,4-dihydroxypyrrolidin-1-yl)-2-fluorophenyl)imidazo[1,2-b]pyridazin-6-yl)((R)-1-methyl-3,4-dihydroisoquinolin-2(1H)-yl)methanone]
rgRSV224 virus
  EC50: 0.013 µM
In vitro
  CC50 at 3 days: 38 µM
